Data on 22 compounds can be found in patent US20230014907A1, “INHIBITORS OF APOL1 AND METHODS OF USING SAME” (Vertex Pharmaceuticals Incorporated, priority 2020, published 2023).

In assay [1] the target is T1, G1 APOL1 (Homo sapiens, UniProt O14791, I384M/S342G).
T1 construct: expressed in transfected cells
T1 sequence (O14791 28-398 S342G/I384M): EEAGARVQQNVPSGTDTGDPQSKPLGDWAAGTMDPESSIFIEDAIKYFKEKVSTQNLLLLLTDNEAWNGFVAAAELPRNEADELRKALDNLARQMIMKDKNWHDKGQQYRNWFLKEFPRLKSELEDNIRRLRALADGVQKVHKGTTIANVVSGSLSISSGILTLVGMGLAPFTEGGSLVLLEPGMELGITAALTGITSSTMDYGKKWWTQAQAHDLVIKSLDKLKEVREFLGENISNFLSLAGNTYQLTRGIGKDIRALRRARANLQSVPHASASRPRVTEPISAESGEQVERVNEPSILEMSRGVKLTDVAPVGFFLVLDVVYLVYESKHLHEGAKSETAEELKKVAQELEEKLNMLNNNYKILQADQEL
In words: Acute APOL1 Thallium Assay with Inducible Stable Clones of HEK 293 Cells. Conditions: HEK 293 inducible stable clones, G1 APOL1; read-out: Thallium Assay (IC50). It is filed as cell-based. A digest of the protocol:
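HEK293 T-Rex cells with a stable tetracycline-inducible G1 APOL1 construct (clone DC3.25) were induced with tetracycline at plating, 26000 cells per well, then incubated at 37° C. They were loaded with an AM-ester thallium-sensitive dye and stimulated with Tl+. The fluorescence rise measured Tl+ influx through APOL1 pores.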

The target of assay [2] is T2, APOL1 G1 Protein (Homo sapiens, UniProt O14791, I384M/S342G).
T2 sequence (O14791 28-398 S342G/I384M): T1 sequence (O14791 28-398 S342G/I384M)
Nature of the assay: Trypanosoma brucei brucei Lysis Assay Using APOL1 Recombinant Protein (AlamarBlue viability). It is filed as cell-based. Conditions: read-out: Trypanosomal Assay (IC50). A digest of the protocol: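 Lister 427 bloodstream-form trypanosomes seeded at 120,000 per well in phenol-red-free, serum-free medium and lysed with recombinant APOL1 variant protein. Viability read by AlamarBlue (resazurin) fluorescence. Percent viability relative to untreated wells, interpolated from a standard curve of seeded parasites.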
On the technique in general: The colour change of resazurin is a common sign of viable cells or microbes.

As for `O=C(CCc1c(-c2ccc(F)cc2)[nH]c2c(F)cc(F)cc12)NCc1cn(CC(F)(F)F)cn1` [Compound 168], the half-maximal inhibitory concentration (IC50) in assay [1] and in assay [2] was > 1000 nM in each case.
Regarding `O=C(CCc1c(-c2ccc(F)cc2)[nH]c2c(F)cc(F)cc12)NC1CCOC1` (centres unmarked) [Compound 169], the IC50 in assay [1] and in assay [2] was > 1000 nM throughout.
In the case of `O=C(CCc1c(-c2ccc(F)cc2)[nH]c2c(F)cc(F)cc12)Nc1cccc(=O)[nH]1` [Compound 170], the half-inhibitory concentration (IC50) in assay [1] and in assay [2] was > 1000 nM in each case.
As to `O=C(CCc1c(-c2ccc(F)cc2)[nH]c2c(F)cc(F)cc12)Nc1nc(C(F)(F)F)co1` [Compound 171], the 50% inhibitory concentration (IC50) in assay [1] and in assay [2] was > 1000 nM throughout.
For the compound `Cc1cnc(NC(=O)CCc2c(-c3ccc(F)cc3)[nH]c3c(F)cc(F)cc23)o1` [Compound 172], the IC50 in assay [1] and in assay [2] was > 1000 nM throughout.
For the compound `CS(=O)(=O)CNC(=O)CCc1c(-c2ccc(F)cc2)[nH]c2c(F)cc(F)cc12` [Compound 173], the 50% inhibitory concentration (IC50) in assay [1] and in assay [2] was > 1000 nM throughout.
Turning to `O=C(CCc1c(-c2ccc(F)cc2)[nH]c2c(F)cc(F)cc12)Nc1cccnc1` [Compound 174], the concentration for half-maximal inhibition (IC50) in assay [1] and in assay [2] was > 1000 nM each time.
With `O=C(CCc1c(-c2ccc(F)cc2)[nH]c2c(F)cc(F)cc12)Nc1ccc[nH]c1=O` [Compound 175], the IC50 in assay [1] and in assay [2] was > 1000 nM in each case.
As to `O=C(CCc1c(-c2ccc(F)cc2)[nH]c2c(F)cc(F)cc12)NCc1cnn(C2CC(F)(F)C2)c1` [Compound 176], the IC50 in assay [1] and in assay [2] was > 1000 nM in each case.
For `Cc1ccc(CNC(=O)CCc2c(-c3ccc(F)cc3)[nH]c3c(F)cc(F)cc23)o1` [Compound 177], the IC50 in assay [1] and in assay [2] was > 1000 nM throughout.
On to `Cc1cnc(NC(=O)CCc2c(-c3ccc(F)cc3)[nH]c3c(F)cc(F)cc23)s1` [Compound 178], for which the IC50 in assay [1] and in assay [2] was > 1000 nM throughout.
With `O=C(CCc1c(-c2ccc(F)cc2)[nH]c2c(F)cc(F)cc12)N[C@H]1CC[C@@H](O)C1` [Compound 179], the IC50 in assay [1] and in assay [2] was > 1000 nM each time.
With `Cc1cc(NC(=O)CCc2c(-c3ccc(F)cc3)[nH]c3c(F)cc(F)cc23)no1` [Compound 180], the half-inhibitory concentration (IC50) in assay [1] and in assay [2] was > 1000 nM each time.
For the compound `O=C(CCc1c(-c2ccc(F)cc2)[nH]c2c(F)cc(F)cc12)N[C@H]1COC[C@@H]1O` [Compound 181], the IC50 in assay [1] and in assay [2] was > 1000 nM each time.
With `CC(C)(NC(=O)CCc1c(-c2ccc(F)cc2)[nH]c2c(F)cc(F)cc12)C(F)(F)F` [Compound 182], the IC50 in assay [1] and in assay [2] was > 1000 nM in each case.
Regarding `Cc1cccc(CNC(=O)CCc2c(-c3ccc(F)cc3)[nH]c3c(F)cc(F)cc23)n1` [Compound 183], the IC50 in assay [1] and in assay [2] was > 1000 nM in each case.
For `O=C(CCc1c(-c2ccc(F)cc2)[nH]c2c(F)cc(F)cc12)Nc1ccno1` [Compound 184], the IC50 in assay [1] and in assay [2] was > 1000 nM in each case.
As for `O=C(CCc1c(-c2ccc(F)cc2)[nH]c2c(F)cc(F)cc12)NC(CO)c1ccccn1` (centres unmarked) [Compound 185], the IC50 in assay [1] and in assay [2] was > 1000 nM throughout.
Consider `O=C(CCc1c(-c2ccc(F)cc2)[nH]c2c(F)cc(F)cc12)NCc1cnn(CC(F)(F)F)c1` [Compound 186], for which the half-inhibitory concentration (IC50) in assay [1] and in assay [2] was > 1000 nM each time.
Regarding `O=C(CCc1c(-c2ccc(F)cc2)[nH]c2c(F)cc(F)cc12)N[C@H]1CCOC1=O` [Compound 187], the IC50 in assay [1] and in assay [2] was < 250 nM in each case.
On to `O=C(CCc1c(-c2ccc(F)cc2)[nH]c2c(F)cc(F)cc12)NC(CCO)C(=O)O` (centres unmarked) [Compound 188], for which the half-inhibitory concentration (IC50) is < 250 nM in assay [1] and 250 to 1000 nM in assay [2].
Taken in the same sequence, the figures for `O=C1CCC(NC(=O)CCc2c(-c3ccc(F)cc3)[nH]c3c(F)cc(F)cc23)C(=O)N1` (centres unmarked) [Compound 190] were > 1000 nM and > 1000 nM.

One may read the IC50 as the concentration at which inhibition is half-maximal.
